Assay results reported in US20080247987A1, “Block Copolymer Compositions and Uses Thereof” (ANGIOTECH INTERNATIONAL AG, priority 2005, published 2008).
Converted amounts (≈) assume the structure as drawn. Read-outs that look alike come from different tables or passages of the source.

Columns and labels:
[1] = cited from earlier work
[2] = system: prostate tumors; settings: via inhibition of angiogenesis; cited from earlier work
[3] = physchem; settings: organic solvent or mixture, thermodynamic from solid
Protocol: The phase separation of the PEG400-TMC/Gly(90/10)900 triblock copolymer from PEG 300 in the presence of water was evaluated to predict its behavior upon dilution in a largely aqueous physiological environment. […] The phase separation is expected to form a PEG 300-rich phase and a PEG400-TMC/Gly(90/10)900-rich phase, the former containing the highest proportion of water. […] Solubility in the PEG 300-rich phase was estimated from co-solvent studies of water/PEG 300 mixtures.

[4] = system: human prostate cancer cell; settings: in vitro; cited from earlier work
[5] = system: neutrophil; settings: cited from earlier work
[6] = system: AP-1; settings: via reduced AP-1 binding to DNA; cited from earlier work
[7] = system: advanced breast, ovarian and non-small cell lung cancer; settings: in vivo; cited from earlier work
[8] = system: collagen induced arthritis; settings: animal model; cited from earlier work
[9] = system: angiogenesis; settings: cited from earlier work
[10] = system: T-cell; settings: cited from earlier work
[11] = system: synoviocytes; settings: cited from earlier work
[12] = system: carrageenin-induced arthritis; test: Inflammatory carrageenin-induced arthritis model; type: in vivo; settings: rabbits
[13] = system: normal chondrocytes and non-proliferating synoviocytes; settings: cited from earlier work
[14] = system: arthritis after anterior cruciate ligament transection; test: Surgical transection of the anterior cruciate ligament (mechanical arthritis model); type: in vivo, Hartley Guinea pigs; settings: introduced into the joint
Text: Hartley Guinea pigs subjected to surgical transaction of the anterior cruciate ligament represent a mechanical model for arthritis. Typically after the anterior cruciate is severed, the animals develop arthritis within several weeks.

[15] = system: prostate cancer; settings: in vitro; cited from earlier work
[16] = system: prostate cancer; settings: in vivo; cited from earlier work

In the case of `C[C@@H]1[C@H](O)[C@@H](C)/C=C/C=C/C=C/C=C/C=C/C=C/C=C/[C@H](O[C@@H]2O[C@H](C)[C@@H](O)[C@H](N)[C@@H]2O)C[C@@H]2O[C@](O)(C[C@@H](O)C[C@@H](O)[C@H](O)CC[C@@H](O)C[C@@H](O)CC(=O)O[C@H]1C)C[C@H](O)[C@H]2C(=O)O` [Amphotericin], the “solubility in water” value ([1]; pH 6 to 7) is given as “insoluble in water”.
For `O=C1c2c(O)cccc2Cc2cccc(O)c21` [Anthralin], the “solubility in water” value [1] is given as “practically insoluble in water”.
For `CC[C@@]1(O)C(=O)OCc2c1cc1n(c2=O)Cc2cc3ccccc3nc2-1` [Camptothecin], the solubility in water [1] is listed as 0.001 to 0.002 mg/mL.
In the case of `COc1cc(/C=C/C(=O)CC(=O)/C=C/c2ccc(O)c(OC)c2)ccc1O` [Curcumin], the “solubility in water” value [1] is listed as “practically insoluble in water”.
In the case of `O=c1c(-c2ccc(O)cc2)coc2cc(O)cc(O)c12` [Genistein], the “solubility in water” value [1] is given as “practically insoluble in water”.
For `COc1ccc2c(c1)c(CC(=O)O)c(C)n2C(=O)c1ccc(Cl)cc1` [Indomethacin], the “solubility in water” value [1] is given as “practically insoluble in water”.
In the case of `CN(C(=O)c1c(O)c2ccccc2n(C)c1=O)c1ccccc1` [Linomide], the “antitumor and antimetastatic effects” value [2] is given as “both antitumor and antimetastatic effects”.
In the case of `CC(=O)O[C@H]1C(=O)[C@@]2(C)[C@H]([C@H](OC(=O)c3ccccc3)[C@]3(O)C[C@H](OC(=O)[C@H](O)[C@@H](NC(=O)c4ccccc4)c4ccccc4)C(C)=C1C3(C)C)[C@]1(OC(C)=O)CO[C@@H]1C[C@@H]2O` [Paclitaxel], the solubility [3] is given as 250 mg/mL (≈ 293 mM), the solubility in water [1] is given as 0.001 to 0.002 mg/mL and the “prostate cancer cell growth” value [4] is given as “inhibit human prostate cancer cell growth in vitro”. The neutrophil activation [5] was “inhibits neutrophil activation”, the AP-1 transcription activity [6] was “inhibits AP-1 transcription activity” and the “efficacy against advanced cancers” value [7] was “shown efficacy against advanced breast, ovarian and non-small cell lung cancer”. The collagen induced arthritis [8] was “inhibits collagen induced arthritis”, the angiogenesis [9] was “potent inhibitory effect on angiogenesis” and the T-cell function [10] was “inhibits T-cell function”. For the same molecule, the “T-cell response to stimuli” value [10] was “decreases T-cell response to stimuli”, the apoptosis in synoviocytes [11] was “induces apoptosis in synoviocytes” and the proliferation of synoviocytes [11] was “prevents the proliferation of”. The effect on cartilage [12] was “demonstrated cartilage”, the “toxicity to non-proliferating cells” value [13] was “non-toxic to non-proliferating cells” and the “effect on arthritic process, cartilage and bone” value [14] was “greatly retarded the arthritic process and protected not only the cartilage, but also the underlying bone, from breakdown”.
For `CC1=C(/C=C/C(C)=C/C=C/C(C)=C/C(=O)O)C(C)(C)CCC1` [Tretinoin], the “solubility in water” value [1] is given as “practically insoluble in water”.
In the case of `C[C@]12CC[C@@H]3c4ccc(OC(=O)N(CCCl)CCCl)cc4CC[C@H]3[C@@H]1CC[C@@H]2O` [estramustine], the “efficacy against prostate cancer” value [15] is given as “some efficacy against prostate cancer” and the “efficacy against prostate cancer” value [16] is given as “some efficacy against prostate cancer”.
In the case of `CC[C@]1(O)C[C@@H]2CN(CCc3c([nH]c4ccccc34)[C@@](C(=O)OC)(c3cc4c(cc3OC)N(C)[C@H]3[C@@](O)(C(=O)OC)[C@H](OC(C)=O)[C@]5(CC)C=CCN6CC[C@]43[C@@H]65)C2)C1` [vinblastine], the “efficacy against prostate cancer” value [15] is given as “some efficacy against prostate cancer” and the “efficacy against prostate cancer” value [16] is given as “some efficacy against prostate cancer”.
